Reference: patent EP1650209A1, “Griseusin derivatives and their use as antitumor agents” (Oncotest GmbH, priority 2004, dated 2006)
In brackets after ≈: the same amount, converted by molar mass.

Experiments:
Test in all cases: Clonogenic assay, colony formation of tumor stem cells from xenografts
Assay type in all cases: cell-based, human
LXFS 538 = conditions: Lung, small cell, xenograft LXFS 538, colony formation
RXF 1393 = conditions: Kidney, xenograft RXF 1393, colony formation
Experimental: (§1) Using various human cancer xenografts in vitro, the concentrations of compound B which inhibit formation of tumor colonies of tumor stem cells by 50% (IC50) and 70% (IC70) are determined in a clonogenic assay. Specifically, each solid tumor of bladder cancer (BXF 1036 and BXF 1299), cervical cancer (CEXF 633 and CEXF 773), colic cancer (CXF 1103, CXF 158, CXF 1729, CXF 264 and CXF 280), gastric cancer (GXF 251 and GXF 97), head and neck cancer (HNXF 536), liver cancer (LIXF 575), non small cell lung cancer comprising adeno, squamous epithelium and large cell carcinoma (LXFA 1012, LXFA 289, LXFA 297, LXFA 526, LXFA 592, LXFA 629, LXFA 677, LXFE 409, LXFL 1072, LXFL 430LX and LXFL 529), small cell lung cancer (LXFS 650), mammary cancer (MAXF 1162, MAXF 1384, MAXF 401, MAXF 449, MAXF 574, MAXF 583, MAXF 713 and MAXF 857), melanoma (MEXF 1341, MEXF 462, MEXF 535 and MEXF 989), ovary cancer (OVXF 899), pancreatic cancer (PAXF 546 and PAXF 736), prostate cancer (DU-145 and PC3M), pleuramesothelioma (PXF 1752), renal cancer (RXF 1220, RXF 1393, RXF 393, RXF 631 and RXF 944LX), and sarcoma (SXF 1301 and SXF 463) engrafted on RPMI nu/nu thymus aplastic nude mice were explanted, disaggregated by mincing and enzymatic digestion for 50 minutes using 125 U/mL DNAse I, 41 U/mL collagenase IV, 100 U/ml hyaluronidase III, and 1 U/mL dispase I, and passed through sieves of 200 µm and 50 µm mesh size and washed twice with sterile PBS-buffer to remove cell aggregated from single cells. The clonogenic assay was performed in a 24 multiwell format. Each of the resulting single cell suspensions was added at a density of 2·10^4 to 6·10^4 cells per well to 0.2 ml of Iscove's Modified Dulbecco's Medium (IMDM) containing 20% fetal calf serum and 0.01% gentamicin supplemented with 0.4% (w/v) agar, and plated onto a bottom layer consisting of the same culture medium containing 0.75% (w/v) agar. After 24 hours IMDM containing 20% fetal calf serum and 0.01 % gentamicin, together with a test compound, was added there to. Then, the plate was incubated at 37°C for 10 to 20 days in a humidified atmosphere of air containing 7.5% CO2. Within this period, in vitro tumor growth led to the formation of colonies with a diameter of > 50µm. Colony counts were performed with an automatic image analysis system (OMNICON 3600). 24 hours prior to evaluation, vital colonies were stained with a vital staining dye. Therefore, 100 µl of a sterile aqueous solution of 2-(4-iodophenyl)-3-(4-nitrophenyl)-5-phenyltetrazolium chloride (1 mg/ml) were added to each well of the plate, and plates were incubated for 24 hours at 37°C in a humidified atmosphere of air containing 7.5% CO2. Inhibition of colony formation was expressed as test versus untreated control (T/C-value [%]). IC50 and IC70 values were determined by plotting compound concentration versus cell viability. Table 3: Inhibition of Colony Formation of Tumor Stem Cells by griseusin derivative B

BXF 1299 = conditions: Bladder, xenograft BXF 1299, colony formation
Experimental: as §1

LXFA 526 = conditions: Lung, non small cell, xenograft LXFA 526, colony formation
Experimental: as §1

CXF 264 = conditions: Colon, xenograft CXF 264, colony formation
Experimental: as §1

PC3M = conditions: Prostate, xenograft PC3M
Experimental: as §1

MAXF 713 = conditions: Breast, xenograft MAXF 713, colony formation
Experimental: as §1

RXF 631 = conditions: Kidney, xenograft RXF 631, colony formation
Experimental: as §1

RXF 1220 = conditions: Kidney, xenograft RXF 1220, colony formation
Experimental: as §1

PAXF 736 = conditions: Pancreas, xenograft PAXF 736, colony formation
Experimental: as §1

MAXF 1384 = conditions: Breast, xenograft MAXF 1384, colony formation
Experimental: as §1

CXF 1103 = conditions: Colon, xenograft CXF 1103, colony formation
Experimental: as §1

LXFL 1072 = conditions: Lung, non small cell, xenograft LXFL 1072, colony formation
Experimental: as §1

MAXF 1162 = conditions: Breast, xenograft MAXF 1162, colony formation
Experimental: as §1

MEXF 462 = conditions: Melanoma, xenograft MEXF 462, colony formation
Experimental: as §1

LXFE 409 = conditions: Lung, non small cell, xenograft LXFE 409, colony formation
Experimental: as §1

MAXF 401 = conditions: Breast, xenograft MAXF 401, colony formation
Experimental: as §1

LXFA 592 = conditions: Lung, non small cell, xenograft LXFA 592, colony formation
Experimental: as §1

IC50 (LXFS 538): 0.307 µg/mL (≈ 0.767 µM)
IC50 (RXF 1393): 0.592 µg/mL (≈ 1.48 µM)
IC50 (BXF 1299): 1.107 µg/mL (≈ 2.77 µM)
IC50 (LXFA 526): 0.300 µg/mL (≈ 0.749 µM)
IC50 (CXF 264): 0.103 µg/mL (≈ 0.257 µM)
IC50 (PC3M): 0.419 µg/mL (≈ 1.05 µM)
IC50 (MAXF 713): 0.498 µg/mL (≈ 1.24 µM)
IC50 (RXF 631): 0.517 µg/mL (≈ 1.29 µM)
IC50 (RXF 1220): 0.782 µg/mL (≈ 1.95 µM)
IC50 (PAXF 736): 0.246 µg/mL (≈ 0.614 µM)
IC50 (MAXF 1384): 0.606 µg/mL (≈ 1.51 µM)
IC50 (CXF 1103): 0.173 µg/mL (≈ 0.432 µM)
IC50 (LXFL 1072): 0.252 µg/mL (≈ 0.629 µM)
IC50 (MAXF 1162): 0.182 µg/mL (≈ 0.455 µM)
IC50 (MEXF 462): 1.666 µg/mL (≈ 4.16 µM)
IC50 (LXFE 409): 1.732 µg/mL (≈ 4.33 µM)
IC50 (MAXF 401): 0.478 µg/mL (≈ 1.19 µM)
IC50 (LXFA 592): 0.215 µg/mL (≈ 0.537 µM)
SMILES: C[C@@H]1CC(=O)[C@@H](O)[C@]2(O1)O[C@@H]1CC(=O)O[C@@H]1C1=C2C(=O)c2c(O)cccc2C1=O [Compound B, 4'-dehydro-deacetylgriseusin A]
IC70 (LXFS 538): 0.502 µg/mL (≈ 1.25 µM)
IC70 (RXF 1393): 0.769 µg/mL (≈ 1.92 µM)
IC70 (BXF 1299): 1.662 µg/mL (≈ 4.15 µM)
IC70 (LXFA 526): 0.512 µg/mL (≈ 1.28 µM)
IC70 (CXF 264): 0.215 µg/mL (≈ 0.537 µM)
IC70 (PC3M): 0.818 µg/mL (≈ 2.04 µM)
IC70 (MAXF 713): 0.700 µg/mL (≈ 1.75 µM)
IC70 (RXF 631): 0.719 µg/mL (≈ 1.8 µM)
IC70 (RXF 1220): 0.952 µg/mL (≈ 2.38 µM)
IC70 (PAXF 736): 0.452 µg/mL (≈ 1.13 µM)
IC70 (MAXF 1384): 0.750 µg/mL (≈ 1.87 µM)
IC70 (CXF 1103): 0.529 µg/mL (≈ 1.32 µM)
IC70 (LXFL 1072): 0.468 µg/mL (≈ 1.17 µM)
IC70 (MAXF 1162): 0.362 µg/mL (≈ 0.904 µM)
IC70 (MEXF 462): 2.152 µg/mL (≈ 5.38 µM)
IC70 (LXFE 409): 2.249 µg/mL (≈ 5.62 µM)
IC70 (MAXF 401): 0.782 µg/mL (≈ 1.95 µM)
IC70 (LXFA 592): 0.468 µg/mL (≈ 1.17 µM)
